In patent US20250011869A1, “TLR3 INHIBITORS FOR USE IN THE TREATMENT OF DISEASES ASSOCIATED WITH CARDIOVASCULAR CALCIFICATION” (priority 2021, published 2025):
“Also recorded” adds a separate entry of the source. Each block holds one molecule with its values, some of them ahead of it.

Key:
[1] = tested on: zebrafish (Danio rerio); assay: Zebrafish VitD3-induced calcification model; assay type: in vivo; settings: larvae from 5 dpf, 5 days; for VitD3-induced calcification on co-incubation: VitD3 200 ng/mL with TLR3-inhibitor 5 μg/mL, opercle and all bone structures
Procedure: Fish were maintained and raised under standard husbandry conditions. VitD3 treatments were performed as previously described^26 with some minor modifications. Briefly: 15 animals (5 dpf) were pooled per 6-well pate and incubated for 5 days at 28° C. in 4 ml E3 medium containing 0.1% DMSO and different compounds as indicated. Larvae were fixed in 4% PFA overnight. Final concentration of compounds was 5 μg/mL for TLR3-inhibitor (Merck, Darmstadt, Germany) and 200 ng/mL VitD3 (Sigma, St. Louis, MO). Dilutions were generated from stock solutions with 10 mg/mL TLR3-INH and 200 mg/mL VitD3 in DMSO. Solutions containing VitD3 were changed every day. All experiments were done in duplicates. Alizarin Red stains were performed as described previously^27 with some minor modifications. After staining larvae were transferred to 100% glycerol and imaged. Area measurements were carried out as described^28.
Whole area: For each larva three independent ventral view images were taken with a Leica MZ16FA using standardized stereomicroscope settings. After each image the larvae were embedded anew. Data quantification was done with ImageJ. Standard white balance was used for background subtraction. Image were converted to greyscale (8 bit) and threshold was set to 225. The stained area excluding the otoliths was measured.
Opercula area: Larvae were imaged laterally from both sides using a standard microscope setting. Area measurements were performed as described above.

[2] = tested on: VICs; assay: Calcification assay of VICs in osteogenic medium (Alizarin Red S, alkaline phosphatase); assay type: cell-based, human; settings: VICs in osteoblastic medium; for calcification / production of calcific nodules: Poly(I:C) 20 μg/mL or inhibitor 26 μM, Alizarin Red S
Procedure: For functional evaluation of osteoblastic activity, VICs were subjected to a calcification assay. Cells were cultured in osteogenic medium including 10 mmol/L beta-glycerophosphate, 10 nmol/L vitamin D3, and 10 nmol/L dexamethasone as described previously^4. The medium was changed every three days. Subsequently, supernatant was analyzed for alkaline phosphatase activity using the commercially available alkaline phosphatase assay kit (Abcam, Cambridge, UK). After careful rinsing with PBS, cells were fixed with 4% paraformaldehyde, washed with distilled water and Alizarin Red S staining solution (Alfa Aesar, Haverhill, MA) was added upon the fixed cells for 20 minutes at room temperature (RT). Imaging of the staining was performed using a Zeiss Axioplan 2 microscope (Zeiss, Oberkochen, Germany). Images were processed using Adobe Photoshop CS5.1 for Mac (Adobe Systems Inc., San Jose, CA, USA) and analyzed with ImageJ software (National Institutes of Health, Bethesda, […]).

[3] = target: T1, recombinant human TLR3 ectodomain (huTLR3-ECD), residues 27-700, C-terminal 6x His tag (human, UniProt O15455 27-700); assay: size-exclusion chromatography of the mixed proteins, fractions immunoblotted
T1 construct: also called purified TLR3 ectodomain; hTLR3-ECD
Procedure: To obtain core protein of bovine biglycan, purchased biglycan (Sigma, St. Louis, MO) was incubated with Chondroitinase ABC (Merck, Darmstadt, Germany) at 37° C. for 2 h. Digestion of chondroitin sulfate was verified by electrophoresis and subsequent Coomassie-staining. To 185 μl of digested BGN (0.5 mg/ml) 15 μl of TLR3 (1 mg/ml) was added and incubated on ice for 30 min. The sample was subjected to size exclusion chromatography (Supedex200 increased 10/300 GL column) using 20 mM HEPES pH7.5 100 mM NaCl as running buffer. Fractions were collected and analyzed by Immunoblotting as described above.

[4] = target: TLR3 (Homo sapiens, UniProt O15455); assay: HEK293 hTLR3 reporter cell assay (TLR3/ISRE LUCPorter, luminometer); assay type: cell-based; settings: putative ligands at increasing concentrations, 24 h (biglycan 5, 10, 20 μg/ml)
Procedure: All cells were cultivated under standard conditions (37° C., supplied with 5% CO2). Passaging of the cells was performed at 70-90% confluency, and cells were only used until passage 7 as described previously^6. Polyinosinic: polycytidylic acid (Poly(I:C); Invivogen, San Diego, CA) was used to stimulate cells at a concentration of either 20 μg/mL or 5 μg/ml, depending on the assay. For blockade of TLR3, the commercially available dsRNA/TLR3 inhibitor ((R)-2-(3-Chloro-6-fluorobenzo [b] thiophene-2-carboxamido)-3-phenyl-propanoic acid) was used (Merck, Darmstadt, Germany) at a concentration of 1 μg/ml as described previously^1,7. LY294002 (Invivogen, San Diego, CA), a PI3K inhibitor, was used at a concentration of 10 μM. For blockade of IFNAR1, a specific blocking antibody (Invitrogen, Carlsbad, CA) was used at a concentration of 4 μg/ml. A stable HEK (human embryonic kidney) reporter cell line (TLR3/ISRE LUCPorter; Imgenex, USA) was purchased for luminometer assay experiments. Cells were cultivated according to the manufacturer's protocol in DMEM with 4.5 g/L glucose (Lonza, Switzerland), 10% FCS (Sigma, St. Louis, MO), penicillin/streptomycin, and 4 mM L-glutamine and […] puromycin (Gibco, USA) as selection agent. Reporter experiments were performed as described previously^8. […]

calcification / production of calcific nodules [2]: reduced calcification
calcification / production of calcific nodules ([2]; listed as dsRNA/TLR3 complex inhibitor): reduced
alkaline phosphatase (ALP) activity ([2]; supernatant): reduced
Molecule: O=C(N[C@H](Cc1ccccc1)C(=O)O)c1sc2cc(F)ccc2c1Cl [TLR3 inhibitor, (R)-2-(3-Chloro-6-fluorobenzo [b]thiophene-2-carboxamido)-3-phenyl-propanoic acid]
VitD3-induced calcification on co-incubation [1]: reduced calcification; also recorded: abolished
VitD3-induced calcification on co-incubation ([1]; listed as Tlr3 inhibitor): severely impaired calcification of the skeleton

binding result [3]: binds
B1: core protein of bovine biglycan (purchased biglycan, Sigma, digested with Chondroitinase ABC) (ligand, UniProt P21809 38-369, looked up)
chain: DEEASGAETTSGIPDLDSLPPTYSAMCPFGCHCHLRVVQCSDLGLKAVPKEISPDTTLLDLQNNDISELRKDDFKGLQHLYALVLVNNKISKIHEKAFSPLRKLQKLYISKNHLVEIPPNLPSSLVELRIHDNRIRKVPKGVFSGLRNMNCIEMGGNPLENSGFEPGAFDGLKLNYLRISEAKLTGIPKDLPETLNELHLDHNKIQAIELEDLLRYSKLYRLGLGHNQIRMIENGSLSFLPTLRELHLDNNKLSRVPAGLPDLKLLQVVYLHTNNITKVGVNDFCPVGFGVKRAYYNGISLFNNPVPYWEVQPATFRCVTDRLAIQFGNYKK
modifications: chondroitin sulfate removed by Chondroitinase ABC digestion
notes: also called digested BGN; BGN

Second part, the molecule before the results:

Molecule: C=C1CC[C@H](O)C/C1=C/C=C1\CCC[C@]2(C)[C@@H]([C@H](C)CCCC(C)C)CC[C@@H]12 [VitD3, vitamin D3]
calcification of landmark bones ([1]; VitD3 200 ng/mL alone): early and strong calcification of landmark bones

B2: rhBGN: BGN lacking chondroitin sulfate chains (protein)
chain (part 1 of 2): HHHHHH
chain (part 2 of 2): DEEASGADTSGVLDPDSVTPTYSAMCPFGCHCHLRVVQCSDLGLKSVPKEISPDTTLLDLQNNDISELRKDDFKGLQHLYALVLVNNKISKIHEKAFSPLRKLQKLYISKNHLVEIPPNLPSSLVELRIHDNRIRKVPKGVFSGLRNMNCIEMGGNPLENSGFEPGAFDGLKLNYLRISEAKLTGIPKDLPETLNELHLDHNKIQAIELEDLLRYSKLYRLGLGHNQIRMIENGSLSFLPTLRELHLDNNKLARVPSGLPDLKLLQVVYLHSNNITKVGVNDFCPMGFGVKRAYYNGISLFNNPVPYWEVQPATFRCVTDRLAIQFGNYKK
modifications: left off: small tags and cut ends
notes: BGN lacking chondroitin sulfate chains
activation of TLR3 reporter cells [4]: did not activate TLR3
